Experimental data from US6794149B1, “GABA B receptors” (Bayer Aktiengesellschaft, priority 1999, dated 2004).

Key:
D-GABA B receptors R1/R2 = assay: cAMP measurement in HEK293 cells stably coexpressing D-GABA B R1/R2; assay type: cell-based, Drosophila melanogaster; settings: D-GABA B R1/2-transfected HEK293 cells; GABA (100 μM) with forskolin (10 μM), 30 minutes, 37° C.; FIG. 2
Protocol: HEK293 cells were cultured at 5% CO2 and 37° C. in Dulbecco's modified Eagle's medium and 10% foetal calf serum. MBS (Stratagene, La Jolla, USA) was used for the gene transfer, following the manufacturer's instructions. 24 h to 48 h after the gene transfer, the cells were sown intro microtiter plates at various densities. Recombinant cells were selected over 3 to 4 weeks by growth in Dulbecco's modified Eagles medium and 10% foetal calf serum and 700 μg/ml Geneticin (G418, Life Technologies, Karlsruhe) as selection marker. Individual resistant clones were analysed as described below.
HEK293 cell strains were used for determining the cAMP concentration. On the one hand, HEK293 cells stably coexpressed the two Drosophila melanogaster receptors D-GABA B R1 and D-GABA B R2 (D-GABA R1/2). On the other hand, untransfected control cells were incorporated into the assay (control). In each case, the cells were plated into 96-well-plates at a density of 20,000 cells per cavity. […] The cells were lysed for 20 minutes at room temperature with shaking, and the cAMP concentration of the cell lysates were determined in triplicate using the enzyme immunoassay (EIA) kit AK-200 (Biomol, Hamburg, Germany) following the manufacturer's description.

[1] = system: untransfected control cells (HEK293); assay: cAMP measurement in untransfected HEK293 control cells; assay type: cell-based; settings: GABA (100 μM) with forskolin (10 μM), 30 minutes, 37° C., FIG. 2
Protocol: HEK293 cell strains were used for determining the cAMP concentration. On the one hand, HEK293 cells stably coexpressed the two Drosophila melanogaster receptors D-GABA B R1 and D-GABA B R2 (D-GABA R1/2). On the other hand, untransfected control cells were incorporated into the assay (control). In each case, the cells were plated into 96-well-plates at a density of 20,000 cells per cavity. Control cells were incubated in culture medium (DMEM, 10% FCS, penicillin and streptomycin, 50 U/ml and 50 μg/ml (Life Technologies)) and D-GABA-R1/2 expressing cells in selection medium (culture medium with 0.5 mg/ml Geneticin (G418, Life Technologies)) for 48 hours at 37° C. until a cell density of approximately 80% was reached. Thereupon, the medium was removed, and the cells were washed once with unsupplemented DMEM. After incubation for 30 minutes with IBMX (300 μM) at 37° C., cells were stimulated for 30 minutes with GABA (100 μM) and/or forskolin (10 μM) at 37° C. All incubation steps were carried out in unsupplemented DMEM (Life Technologies). […] The cells were lysed for 20 minutes at room temperature with shaking, and the cAMP concentration of the cell lysates were determined in triplicate using the enzyme immunoassay (EIA) kit AK-200 (Biomol, Hamburg, Germany) following the manufacturer's description.

Q: `NCCCC(=O)O` [GABA, Gamma-amino-butyric acid] was tested. Which “forskolin-induced cAMP response (intracellular cAMP concentration)” value (D-GABA B receptors R1/R2) did it give?
A: marked reduction

Q: And the “forskolin-induced cAMP response (intracellular cAMP concentration)” value [1]?
A: unresponsive
